Data on 1 compound can be found in patent publication US20240041842A1, “PHARMACEUTICAL COMPOSITION FOR INHIBITING CANCER METASTASIS” (INDUSTRY-ACADEMIC COOPERATION FOUNDATION, YONSEI UNIVERSITY, priority 2021, published 2024).

Molecules are shown by their SMILES.

Holding throughout (type): cell-based, human
The test system of assay [1] is acetylated Snail. Briefly: Immunoprecipitation-immunoblot of acetylated Snail. As to conditions: KRAS-mutant pancreatic cancer cells; 100 uM chloroquine, 24 hours. Here is the method:
Cell lysates (1 μg protein) were incubated overnight at 4° C. on anti-FLAG® M2 Affinity Gel (Sigma, A2220) or anti-acetyl-lysine antibody coated agarose (ImmuneChem Pharmaceuticals, ICP0388). The immunoprecipitate was then washed three times in IP buffer, and the immunoprecipitated complex was dissolved and separated by boiling in IP buffer for 5 minutes.
For SDS-PAGE electrophoresis, the immunoprecipitated complex was transferred to a nitrocellulose membrane and the membrane was blocked and then incubated for 1 hour at room temperature with Primary antibody and secondary antibody (VeriBlot for IP Detection Reagent (HRP) (Abcam, #ab131366), and anti-mouse IgG tor IP (HRP) (Abeam, #ab131368)).
After washing 3 times, the membrane was incubated with the secondary antibody.

For assay [2], the system named is Snail. The assay can be described thus: Western blot of Snail protein. As to conditions: HBEC-KL cell line; chloroquine 12 to 48 hours.
In assay [3] the test system is total protein acetylation. Briefly: Western blot of total protein acetylation. The conditions noted are these: HBEC-KL; 50 uM chloroquine, 24 hours; same effect = reduced. How it is done:
Cells were harvested, washed with PBS, and lysed on ice with RIPA buffer containing protease and phophatase inhibitor cocktail (GenDEPOT). After 15 minutes of incubation, the cell lysates were centrifuged at 15,000 rpm at 4° C. for 10 minutes. Protein concentration was measured by Bradford assay (Bio-rad, 500-0006). Equal amounts of total protein were placed on an SDS gel electrophoresis and transferred to a PVDF membrane (Bio-rad). The membrane was blocked with 5% skim milk for 1 hour at room temperature and incubated overnight at 4° C. with primary antibody in a buffer containing 0.1% Tween-20. Subsequently, the membrane was washed three times with Tween-PBS buffer and incubated for 1 hour at room temperature using a secondary antibody diluted in blocking buffer containing 0.1% Tween-20. Subsequently, the membrane was washed three times for 10 minutes each using Tween-TBS. Densitometry of Western blots was measured using ImageJ software.

For assay [4], the system named is LC3. Briefly: Autophagic flux (LC3 Western blot, mRFP-GFP-LC3 lysosomal delivery assay). As to conditions: HBEC-KL cells; 50 uM chloroquine for 6 hours.
Assay [5] deals with SNAI1 gene. The assay can be described thus: Real-time PCR of SNAI1 gene. As to conditions: HBEC-KL cell line; 50 uM chloroquine, 24 hours. How it is done: After synthesizing complementary DNA (cDNA) using the TOPscript·8 cDNA synthesis kit (Enzynomics, EZ0054), gRT-PCR was performed with TCPreal™ gRCR 2× PreMIX (SYBR Green with low ROX) (Enzynomics, RT501M). GAPDH and beta-actin were used for RNA normalization. qRT-PCR was performed with a StepOne Plus (Applied Biosystems) instrument.

Assay [6] concerns Intracellular acetyl-CoA. The assay can be described thus: Acetyl-CoA measurement. As to conditions: KRAS-mutant pancreatic cancer cells; 100 uM chloroquine, 24 hours. Here is the method: Intracellular acetyl-CoA levels were calculated in the pmol range using the PicoProbe Acetyl-CoA Assay Kit (Biovision, K317). […] After correcting the background in all readings, the value of each sample was determined and normalized to the protein concentration of each sample.

The subject of assay [7] is KRAS-mutant pancreatic cancer cells. Briefly: Matrigel invasion assay, pancreatic cancer cell lines. The conditions noted are these: 100 uM chloroquine, 24 hours. Here is the method: FIG. 12C illustrates changes in matrigel invasiveness after treating the pancreatic cancer cell line with 100 uM chloroquine (CQ) for 24 hours, and the bright-field micrographs of cells infiltrating through the matrigel coated transwell membrane (top) and quantification results (bottom) are shown.
For the 2D invasion assay, the inserts were pre-coated with 300 μg/ml Matrigel (Coming, 354234). After staining with […] dye (Bio-Rad, 1450013), 1×10^5 live cells per 8-um-pore cell-culture insert (Costar. 3422) were seeded in 0.5% ACL medium. 10% ACL medium was added to the outside of the insert. In the case of lung cancer and pancreatic cancer cell lines, after inoculation in 1% RPMI medium, 20% RPMI medium was added to the outside of the insert. Plates were incubated for 24 hours at 37° C. After incubation, the insert was fixed with 3.7% PFA, washed, stained with 0.4% crystal violet, and the upper membrane was washed and dried.

Regarding `CCN(CC)CCCC(C)Nc1ccnc2cc(Cl)ccc12` (stereo not shown) [CQ, chloroquine], in assay [1], the “acetylated Snail” value was “reduced”. The “expression level of Snail protein” value in assay [2] is reported as “reduced”. Besides, the overall protein acetylation entry in assay [3] is recorded as “the same effect”. For the same compound, the LC3-II accumulation result in assay [4] is reported as “high levels”. For the same compound, the “SNAI1 mRNA expression level” value in assay [5] is listed as “no change”. Moreover, the acetyl-CoA entry in assay [6] is “reduced”. Moreover, the “2D Matrigel transwell invasion” value in assay [7] is recorded as “reduced”.
